Results reported in patent publication US20100298141A1, “SUBSTITUTED PYRIDINE N-OXIDE HERBICIDES” (E. I. DU PONT DE NEMOURS AND COMPANY, priority 2007, published 2010).

Columns and labels:
common sowthistle = test: Test F preemergence test; format: in vivo, Sonchus oleraceous; conditions: scale 0 to 100
Source text: (§1) Seeds of plant species selected from bermudagrass (Cynodon dactylon), Surinam grass (Brachiaria decumbens), large crabgrass (Digitaria sanguinalis), green foxtail (Setaria viridis), goosegrass (Eleusine indica), johnsongrass (Sorghum halepense), kochia (Kochia scoparia), pitted morningglory (Ipomoea lacunosa), purple nutsedge (Cyperus rotundus), common ragweed (Ambrosia elation), mustard (Brassica nigra), guineagrass (Panicum maximum), […] (Paspalum dilatatum), barnyardgrass (Echinochloa crus-galli), southern sandbur (Cenchrus echinatus), common sowthistle (Sonchus oleraceous), prickly […] spinosa), Italian ryegrass (Lolium multiflorum), common purslane (Portulaca oleracea), broadleaf signalgrass (Brachiaria platyphylla), common groundsel (Senecio vulgaris), common chickweed (Stellaria media), Virginia dayflower (Commelina virginica), annual bluegrass (Poa annua), naked crabgrass (Digitaria nuda), […] cochinchinensis), quackgrass (Elytrigia repens), Canada horseweed (Conyza canadensis), field bindweed (Convolvulus arvensis), […] (Bidens bipinnata), common mallow (Malva sylvestris), Russian thistle (Salsola kali), and sugarcane (Saccharum officinarum) were planted and treated preemergence with test chemicals formulated in a non-phytotoxic solvent mixture which included a surfactant. At a different time, sugarcane was treated with postemergence applications of some of the test chemicals formulated in the same manner. Plants were approximately 3- to 4-leaf stage for the postemergence treatments. Treated plants and controls were maintained in a greenhouse for 14 to 21 days, after which time all species were compared to controls and visually evaluated. […] A dash (-) response means no test result.

common chickweed = test: Test F preemergence test; format: in vivo, Stellaria media; conditions: scale 0 to 100
Source text: as §1

Canada horseweed = test: Test F preemergence test; format: in vivo, Conyza canadensis; conditions: scale 0 to 100
Source text: as §1

spanishneedles = test: Test F preemergence test; format: in vivo, Bidens bipinnata; conditions: scale 0 to 100
Source text: as §1

windgrass = test: Test C pre-/postemergence test; format: in vivo, Apera spica-venti; conditions: Postemergence; for Plant response rating, Windgrass: scale 0 to 100, 0 no effect, 100 complete control
Source text: Seeds of plant species selected from blackgrass (Alopecurus myosuroides), downy brome (Bromus tectorum), green foxtail (Setaria viridis), Italian ryegrass (Lolium multiflorum), wheat (Triticum aestivum), wild oat (Avena fatua), catchweed bedstraw (Galium aparine), Russian thistle (Salsola kali), […] (Cynodon dactylon), Surinam grass (Brachiaria decumbens), cocklebur (Xanthium strumarium), corn (Zea mays), crabgrass (Digitaria sanguinalis), woolly cupgrass (Eriochloa villosa), giant foxtail (Setaria faberii), Goosegrass (Eleusin indica), johnsongrass (Sorghum halepense), kochia (Kochia scoparia), lambsquarters (Chenopodium album), morningglory (Ipomoea coccinea), eastern black nightshade (Solanum ptycanthum), yellow nutsedge (Cyperus esculentus), pigweed (Amaranthus retroflexus), common ragweed (Ambrosia elation), soybean (Glycine max), common (oilseed) sunflower (Helianthus annuus), and velvetleaf (Abutilon theophrasti) were planted and treated preemergence with test chemicals formulated in a non-phytotoxic solvent mixture which included a surfactant. At the same time, plants selected from these crop and weed species and also winter barley (Hordeum vulgare), canarygrass (Phalaris minor), and chickweed (Stellaria media) were treated with postemergence applications of some of the test chemicals formulated in the same manner. Plants ranged in height from 2 to 18 cm (1- to 4-leaf stage) for postemergence treatments. […] At time of treatment, test pots were flooded to 3 cm above the soil surface, treated by application of test compounds directly to the paddy water, and then maintained at that water depth for the duration of the test. […] A dash (-) response means no test result.

winter barley = test: Test C postemergence test; format: in vivo, Hordeum vulgare; conditions: for Plant response rating (0 to 100), Barley: 31 g ai/ha; for Plant response rating, Barley: scale 0 to 100, 0 no effect, 100 complete control
Protocol: (§2) At the same time, plants selected from these crop and weed species and also winter barley (Hordeum vulgare), canarygrass (Phalaris minor), and chickweed (Stellaria media) were treated with postemergence applications of some of the test chemicals formulated in the same manner. Plants ranged in height from 2 to 18 cm (1- to 4-leaf stage) for postemergence treatments. […] At time of treatment, test pots were flooded to 3 cm above the soil surface, treated by application of test compounds directly to the paddy water, and then maintained at that water depth for the duration of the test. Treated plants and controls were maintained in a greenhouse for 13 to 15 days, after which time all species were compared to controls and visually evaluated. […] A dash (-) response means no test result.

canarygrass = test: Test C postemergence test; format: in vivo, Phalaris minor; conditions: for Plant response rating (0 to 100), Canarygrass: 31 g ai/ha; for Plant response rating, Canarygrass: scale 0 to 100, 0 no effect, 100 complete control
Protocol: as §2

chickweed = test: Test C postemergence test; format: in vivo, Stellaria media; conditions: for Plant response rating (0 to 100), Chickweed: 31 g ai/ha; for Plant response rating, Chickweed: scale 0 to 100, 0 no effect, 100 complete control
Protocol: as §2

Row | Structure (SMILES) | Sowthistle plant response rating (common sowthistle; 125 g ai/ha, preemergence) | Plant response rating, Sowthistle (common sowthistle; Preemergence, 62 g ai/ha) | Plant response rating, Sowthistle (common sowthistle; Preemergence, 31 g ai/ha) | Plant response rating, Chickweed (common chickweed; 16 g ai/ha, preemergence) | Chickweed plant response rating (common chickweed; 62 g ai/ha, Preemergence) | Chickweed plant response rating (common chickweed; 125 g ai/ha, preemergence) | Plant response rating, Chickweed (common chickweed; Preemergence, 31 g ai/ha) | Plant response rating, Horseweed (Canada horseweed; 16 g ai/ha, preemergence) | Horseweed plant response rating (Canada horseweed; 62 g ai/ha, Preemergence) | Horseweed plant response rating (Canada horseweed; 125 g ai/ha, preemergence) | Plant response rating, Horseweed (Canada horseweed; Preemergence, 31 g ai/ha) | Plant response rating, Spanishneedles (spanishneedles; 16 g ai/ha, preemergence) | Spanishneedles plant response rating (spanishneedles; 125 g ai/ha, preemergence) | Plant response rating, Spanishneedles (spanishneedles; Preemergence, 62 g ai/ha) | Plant response rating, Spanishneedles (spanishneedles; Preemergence, 31 g ai/ha) | Plant response rating (0 to 100), Windgrass (windgrass; 31 g ai/ha) | Plant response rating (0 to 100), Windgrass (windgrass; 62 g ai/ha) | Plant response rating, Windgrass (windgrass; 125 g ai/ha) | Plant response rating, Windgrass (windgrass; 250 g ai/ha) | Plant response rating (0 to 100), Barley (winter barley) | further results
1 | CCn1nc(C(F)(F)F)c(C[S+]([O-])c2cc(C)cc[n+]2[O-])c1OCC(F)(F)F (racemic) [Compound 66] | 100 | 100 | 0 | 100 | 100 | 100 | 100 | 50 | 90 | 100 | 50 | 15 | 100 | 80 | 65 |  |  |  |  |  | Plant response rating, Sowthistle (common sowthistle; 16 g ai/ha, preemergence): 0
2 | Cn1nc(C(F)(F)F)c(C[S+]([O-])c2ccc(F)c[n+]2[O-])c1OC(F)F (centres unmarked) [Compound 58] | 100 | 100 | 0 |  | 95 | 100 |  |  | 98 | 98 | 98 |  | 65 | 50 | 50 | 20 | 40 | 70 | 95 | 0 | Plant response rating, Barley (winter barley; 62 g ai/ha): 0; Plant response rating, Barley (winter barley; 125 g ai/ha): 20; Plant response rating, Barley (winter barley; 250 g ai/ha): 30; Plant response rating (0 to 100), Canarygrass (canarygrass): 0; Plant response rating, Canarygrass (canarygrass; 62 g ai/ha): 0; Plant response rating, Canarygrass (canarygrass; 125 g ai/ha): 0; Plant response rating, Canarygrass (canarygrass; 250 g ai/ha): 0; Plant response rating (0 to 100), Chickweed (chickweed): 30; Plant response rating, Chickweed (chickweed; 62 g ai/ha): 60; Plant response rating, Chickweed (chickweed; 125 g ai/ha): 60; Sowthistle plant response rating (common sowthistle; 250 g ai/ha, preemergence): 100; Chickweed plant response rating (common chickweed; 250 g ai/ha, preemergence): 100; Horseweed plant response rating (Canada horseweed; 250 g ai/ha, preemergence): 100; Spanishneedles plant response rating (spanishneedles; 250 g ai/ha, preemergence): 100
3 | CCn1nc(C(F)(F)F)c(CS(=O)(=O)c2cc(C)cc[n+]2[O-])c1OCC(F)(F)F [Compound 64] | 100 | 100 | 0 | 65 | 100 | 100 | 100 | 0 | 50 | 100 | 0 | 30 | 60 | 40 |  | 0 | 90 | 98 | 100 | 0 | Plant response rating, Barley (winter barley; 62 g ai/ha): 0; Plant response rating, Barley (winter barley; 125 g ai/ha): 5; Plant response rating, Barley (winter barley; 250 g ai/ha): 20; Plant response rating (0 to 100), Canarygrass (canarygrass): 0; Plant response rating, Canarygrass (canarygrass; 62 g ai/ha): 0; Plant response rating, Canarygrass (canarygrass; 125 g ai/ha): 5; Plant response rating, Canarygrass (canarygrass; 250 g ai/ha): 10; Plant response rating (0 to 100), Chickweed (chickweed): 0; Plant response rating, Chickweed (chickweed; 62 g ai/ha): 0; Plant response rating, Chickweed (chickweed; 125 g ai/ha): 0; Plant response rating, Chickweed (chickweed; 250 g ai/ha): 0
4 | CCc1cc[n+]([O-])c(S(=O)(=O)Cc2c(C(F)(F)F)nn(C)c2OCC(F)(F)F)c1 [Compound 60] | 100 | 100 | 80 |  | 100 | 100 | 100 |  | 100 | 100 | 95 |  | 80 | 80 | 20 |  |  |  |  |  | Sowthistle plant response rating (common sowthistle; 250 g ai/ha, preemergence): 100; Chickweed plant response rating (common chickweed; 250 g ai/ha, preemergence): 100; Horseweed plant response rating (Canada horseweed; 250 g ai/ha, preemergence): 100; Spanishneedles plant response rating (spanishneedles; 250 g ai/ha, preemergence): 100
